A word on the IC50: it is the concentration that gives 50% inhibition.

In series [1] the test system is SPC212 human mesothelioma cell line. The series is described as follows: Neutral red (NR) uptake cytotoxicity assay, SPC212. Format: cell-based. The settings on record: for selectivity index SPC212: IC50 in CRL2120 normal fibroblasts divided by IC50 in SPC212. The text has this:
(§1) Six human cancer cell lines and one normal cell line were used in this study. They included A549 human non-small cell lung cancer (NSCLC) cell line, obtained from the Institute for Fermentation, Osaka (IFO, Japan) and provided by Prof. Dr. Tansu Koparal (Anadolu University, Eskisehir, Turkey), SPC212 human mesothelioma cell line obtained from American Type Culture Collection (ATCC) and provided by Dr. Asuman Demiroğlu Zergeroğlu (Gebze Technical University, Kocaeli, Turkey), DLD-1 colorectal adenocarcinoma cell lines obtained from ATCC (CCL-221), Caco2 colorectal adenocarcinoma cells (ATCC, HTB-37) obtained from the ŞAP Institute of Turkey (Ankara), HepG2 hepatocarcinoma cells (ATCC, HB-8065) and MCF-7 breast adenocarcinoma cells (ATCC, HTB-22) were provided by Prof. Dr. Tansu Koparal (Anadolu University, Eskisehir, Turkey). The normal CRL2120 human skin fibroblasts were obtained from ATCC [CCD1094Sk (ATCC, CRL-2120)]. The cells were maintained as a monolayer in DMEM medium (Sigma-aldrich, Munich, Germany) medium supplemented with 10% fetal calf serum and 1% penicillin (100 U/mL)-streptomycin (100 μg/mL) in a humidified 5% CO2 atmosphere at 37 °C.
(§2) The cytotoxicity of samples was performed by NR uptake assay as previously described. This method is based on the ability of viable cells to incorporate and bind the supravital dye NR in the lysosomes. The procedure is cheaper and more sensitive than other cytotoxicity tests. […] Briefly, cells were detached by treatment with 0.25% trypsin/EDTA (Invitrogen) and an aliquot of 1 × 10^4 cells was placed in each well of a 96-well cell culture plate […]. The cells were allowed to attach overnight and subsequently treated with different concentrations of the 14 compounds. Each of the studied samples was immediately added in varying concentrations in additional 100 μL of culture medium to obtain a total volume of […]/well. After 72 h incubation in humidified 5% CO2 atmosphere at 37 °C, the medium was removed and 200 μL fresh medium containing 50 μg/mL NR was added to each well and incubation continued for an additional 3 h at 37 °C in 5% CO2 atmosphere. The dye medium was then removed and each well was then washed rapidly with 200 μL phosphate buffer saline (PBS) followed by addition of 200 μL of acetic acid-water-ethanol in water (1:49:50). The plates were kept for 15 min at room temperature to extract the dye and then shaken for a few minutes on a GFL 3012 shaker (Gesellschaft für Labortechnik mbH, Burgwedel, Germany). Absorbance was measured on ELx 808 Ultra Microplate Reader (Biotek) equipped with a 540 nm filter. Each assay was done at least three times, with three replicates each. The viability was evaluated based on a comparison with untreated cells. The IC50 values represent the sample’s concentrations required to inhibit 50% of cell proliferation and were calculated from a calibration curve by linear regression using Microsoft Excel.

Series [2] relates to MCF-7 cells. Description: Mitochondrial membrane potential (MMP) analysis, JC-1 staining, flow cytometry. In kind it is cell-based, human. As to conditions: IC50 (C3), 72 h, control 4.3%. How it is done:
The MMP was analyzed in MCF-7 cells by 5,5′,6,6′-tetrachloro-1,1′,3,3′-tetraethylbenzimidazolylcarbocyanine iodide) (JC-1; Biomol, Hamburg, Germany) staining as previously reported. […] Subsequently, cells were measured in a BD FACS Aria I Cell Sorter Flow Cytometer (Becton-Dickinson, Germany). The JC-1 signal was measured at an excitation of 561 nm (150 mW) and detected using a 586/15 nm band-pass filter. The signal was analyzed at 640 nm excitation (40 mW) and detected using a 730/45 nm bandpass filter. Cytographs were analyzed using BD FACSDiva™ Flow Cytometry Software Version 6.1.2 (Becton-Dickinson). All experiments were performed at least in triplicate.
(In general: In flow cytometry, cells or beads pass a laser one at a time.)

In series [3] the test system is MCF-7 breast adenocarcinoma cells. Description: Neutral red (NR) uptake cytotoxicity assay, MCF-7. Format: cell-based, human. As to conditions: for IC50: Homo sapiens, MCF7, 72 h, neutral red assay, 72 h incubation, read-out: IC50 MCF-7; for selectivity index MCF-7: IC50 in CRL2120 normal fibroblasts divided by IC50 in MCF-7.
Text: as §1, §2

Series [4] can be described thus: Neutral red (NR) uptake cytotoxicity assay, Caco-2. In kind it is cell-based, human. The settings on record: human; IC50 in CRL2120 normal fibroblasts divided by IC50 in Caco-2; read-out: selectivity index Caco-2 (converted).
Text: as §1, §2

Series [5] concerns Caco2 colorectal adenocarcinoma cells. The series is described as follows: Neutral red (NR) uptake cytotoxicity assay, Caco-2. Format: cell-based, human. The settings on record: Homo sapiens, Caco-2; neutral red assay, 72 h incubation.
Text: as §1, §2

Series [6] deals with MCF-7 cells. The series is described as follows: Measurement of reactive oxygen species (ROS), DCFH-DA. In kind it is cell-based, human. The settings on record: at IC50, 24 h. The procedure:
This is a cell-based assay for measuring hydroxyl, peroxyl, or other reactive oxygen species activity within a cell. The assay employs the cell-permeable fluorogenic probe 2′,7′-dichlorodihydrofluorescin diacetate (DCFH-DA). DCFH-DA is diffused into cells and is deacetylated by cellular esterases to non-fluorescent 2′,7′-dichlorodihydrofluorescin (DCFH), which is rapidly oxidized to highly fluorescent 2′,7′-dichlorofluorescein (DCF) by ROS. […] After addition of 100 μL 1× DCFH-DA/DMEM solution to cells and incubation at 37 °C for 30–60 min, the fluorescence was measured using SpectraMax® M5 Microplate Reader (Molecular Devices, Biberach, Germany) at 480/530 nm. All experiments were performed at least in triplicate.

The subject of series [7] is six tested cancer cell lines (A549, SPC212, DLD-1, Caco-2, MCF-7, HepG2). Description: Neutral red uptake assay, statements over the six tested cancer cell lines. Format: cell-based, human.
Text: as §1, §2

The test system of series [8] is DLD-1 colorectal adenocarcinoma cell lines. Description: Neutral red (NR) uptake cytotoxicity assay, DLD-1. In kind it is cell-based, human. The settings on record: for IC50: Homo sapiens, DLD-1, neutral red assay, 72 h incubation, read-out: IC50 DLD-1.
Text: as §1, §2

The test system of series [9] is caspase 3/7 in MCF-7 cells. The series is described as follows: Caspase-Glo 3/7 assay. The settings on record: IC50 and 2-fold IC50, 6 h (data not shown). In kind it is cell-based, human. How it is done:
Caspases activity in MCF-7 cells was detected using Caspase-Glo 3/7 and Caspase-Glo 9 Assay kits (Promega, Mannheim, Germany) as previously reported. […] Luminescence was measured using an BioTek Synergy™ HT multi-detection microplate reader. Caspase activity was expressed as percentage of the untreated control.

`CC1=CC(=O)c2c(O)cccc2C1=O` [Compound 4, 5-hydroxy-2-methyl-1,4-naphthalenedione]: the IC50 in series [1] (Homo sapiens, 72 h, neutral red assay, 72 h incubation, read-out: IC50 SPC212) is 270 ± 10 nM; in series [3], 60 ± 10 nM; in series [5], 70 ± 10 nM; in series [8], 980 ± 110 nM. Further, the “selectivity index SPC212” value in [1] is given as 250.59. Further, the “MMP, gate P2 (loss / depletion of MMP)” value in series [2] stood at 12.2%. In series [3], the “selectivity index MCF-7” value was 1127.67. Further, the selectivity ratio at 72 h in [4] was 967. Further, in series [6], the “increase in ROS levels as compared with non-treated cells” value is given as “more than 3 fold”. Further, in series [7] (IC50 CRL2120 / IC50 cancer cell line), the “selectivity indexes (CRL2120 vs carcinoma cells), lower bound over the cancer cell lines” value is on record as over 59. For the same molecule, the “activity of caspase 3/7” value in series [9] is “no modification”.

For `CCCCCCCCCCCCCC1=C(O)C(=O)C=C(O)C1=O` [Compound 9, 2,5-dihydroxy-3-tridecyl-2,5-cyclohexadiene-1,4-dione], in series [1], the “selectivity index SPC212” value is reported as 41.96. Further, the “MMP, gate P2 (loss / depletion of MMP)” value in series [2] is recorded as 88.1%. The IC50 in series [3] is 16900 ± 4650 nM; in series [5], 22950 ± 130 nM; in series [7] (Homo sapiens, bound valid for all six cancer cell lines, neutral red assay), under 100000 nM; in [8], 46600 ± 5380 nM. The “selectivity index MCF-7” value in [3] stood at 5.62. Moreover, the selectivity ratio at 72 h in series [4] is 4.15. In addition, the “increase in ROS levels as compared with non-treated cells” value in [6] is “less than 2 fold”. Besides, in series [8] (IC50 in CRL2120 normal fibroblasts divided by IC50 in DLD-1), the “selectivity index DLD-1” value stood at 2.04. Also, the “activity of caspase 3/7” value in series [9] is on record as “no modification”.
